Results from ChEMBL document CHEMBL1201862, “PubChem BioAssay data set” (2004).
Calls of active or inactive are those of the source.

Assays:
[1] = molecular target: T1, Nuclear receptor subfamily 0 group B member 1 (Homo sapiens, UniProt P51843); experiment: Luminescence-based cell-based high throughput dose response assay for inhibitors of the orphan nuclear receptor subfamily 0, group B, member 1 (DAX1; NR0B1). [Related pubchem assays (depositor defined):AID504766, AID504790]; format: functional
T1 sequence (P51843 whole entry): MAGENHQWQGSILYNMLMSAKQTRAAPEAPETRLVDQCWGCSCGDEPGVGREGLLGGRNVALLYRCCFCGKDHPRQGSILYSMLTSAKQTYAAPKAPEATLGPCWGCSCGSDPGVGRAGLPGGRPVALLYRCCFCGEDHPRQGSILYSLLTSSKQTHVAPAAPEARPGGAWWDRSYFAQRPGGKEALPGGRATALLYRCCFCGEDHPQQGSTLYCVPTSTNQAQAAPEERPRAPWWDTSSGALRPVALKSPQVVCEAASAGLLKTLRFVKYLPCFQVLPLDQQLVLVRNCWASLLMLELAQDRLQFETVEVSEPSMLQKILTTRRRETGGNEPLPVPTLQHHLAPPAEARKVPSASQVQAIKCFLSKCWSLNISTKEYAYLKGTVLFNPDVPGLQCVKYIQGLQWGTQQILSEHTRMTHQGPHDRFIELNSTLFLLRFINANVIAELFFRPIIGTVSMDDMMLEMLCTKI

HEK293 = experiment: cells; format: functional, cell-based; details: Homo sapiens
CAAX prenyl protease 2 [2] = molecular target: T2, CAAX prenyl protease 2 (Homo sapiens, UniProt Q9Y256); experiment: human Rce1 protease inhibitors, dose response, biochemical, yeast membranes, quenched-peptide fluorescence, cherry-pick (AID 588849)
T2 sequence (Q9Y256 whole entry): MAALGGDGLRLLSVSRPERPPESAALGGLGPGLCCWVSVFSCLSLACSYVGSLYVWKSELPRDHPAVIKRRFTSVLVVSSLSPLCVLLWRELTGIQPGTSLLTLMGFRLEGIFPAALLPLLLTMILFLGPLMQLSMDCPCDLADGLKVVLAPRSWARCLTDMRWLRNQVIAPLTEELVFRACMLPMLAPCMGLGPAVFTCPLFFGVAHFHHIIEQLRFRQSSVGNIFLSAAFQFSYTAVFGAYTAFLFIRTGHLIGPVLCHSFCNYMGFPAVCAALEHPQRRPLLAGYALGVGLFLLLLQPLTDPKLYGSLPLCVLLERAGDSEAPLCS

CAAX prenyl protease 2 [3] = molecular target: T3, CAAX prenyl protease 2 (Saccharomyces cerevisiae S288c, UniProt Q03530); format: biochemical
T3 sequence (Q03530 whole entry): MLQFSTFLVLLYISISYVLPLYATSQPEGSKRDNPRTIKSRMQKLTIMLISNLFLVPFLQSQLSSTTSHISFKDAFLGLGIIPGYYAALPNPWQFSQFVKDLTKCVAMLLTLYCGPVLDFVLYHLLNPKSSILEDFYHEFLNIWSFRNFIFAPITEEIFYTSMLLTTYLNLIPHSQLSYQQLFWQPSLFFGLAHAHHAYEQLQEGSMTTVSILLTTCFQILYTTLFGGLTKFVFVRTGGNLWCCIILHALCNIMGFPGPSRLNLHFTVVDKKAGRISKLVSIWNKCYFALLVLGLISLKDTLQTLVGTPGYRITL

Trypsin = Trypsin (Sus scrofa, UniProt P00761); experiment: porcine trypsin inhibitors, dose response, selectivity assay for Rce1 protease inhibitor project, biochemical, quenched peptide fluorescence, cherry-pick (AID 488789)
[4] = molecular target: Heat shock protein HSP 90-alpha (Homo sapiens, UniProt P07900); format: functional, organism-based
Troponin, cardiac muscle = Troponin, cardiac muscle (Homo sapiens, UniProt P19429+P45379+P63316); experiment: Fluorescence-based biochemical high throughput dose response assay for activators of the calcium sensitivity of cardiac Regulated Thin Filaments (RTF). [Related pubchem assays (depositor defined):AID493008, AID493018, AID504382, AID504383]; format: protein-complex assay
[5] = molecular target: T4, Rac GTPase-activating protein 1 (Homo sapiens, UniProt Q9H0H5); experiment: MgcRacGAP GTPase-activating activity inhibitors, confirmation, biochemical, ADP Hunter fluorescence, primary and confirmatory (AID 624330); format: functional
T4 sequence (Q9H0H5 whole entry): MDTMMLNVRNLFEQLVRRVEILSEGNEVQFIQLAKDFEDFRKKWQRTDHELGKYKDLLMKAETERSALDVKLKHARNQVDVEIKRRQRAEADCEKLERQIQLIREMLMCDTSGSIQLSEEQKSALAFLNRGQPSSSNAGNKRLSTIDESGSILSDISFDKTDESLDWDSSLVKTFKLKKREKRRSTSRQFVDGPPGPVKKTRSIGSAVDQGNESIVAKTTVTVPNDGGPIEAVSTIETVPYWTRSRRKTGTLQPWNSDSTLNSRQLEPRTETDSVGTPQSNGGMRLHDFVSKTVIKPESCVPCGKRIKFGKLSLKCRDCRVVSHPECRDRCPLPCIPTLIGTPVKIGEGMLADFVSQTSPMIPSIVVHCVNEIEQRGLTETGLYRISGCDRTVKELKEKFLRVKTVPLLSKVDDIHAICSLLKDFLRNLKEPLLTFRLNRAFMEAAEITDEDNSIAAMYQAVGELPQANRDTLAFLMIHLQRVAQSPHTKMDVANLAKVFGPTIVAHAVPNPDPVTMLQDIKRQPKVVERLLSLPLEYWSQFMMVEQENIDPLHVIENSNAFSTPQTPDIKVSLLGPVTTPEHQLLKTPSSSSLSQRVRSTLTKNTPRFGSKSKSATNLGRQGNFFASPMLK

[6] = cytotoxicity in HEK-293T NF-kB-Luc cells, dose response, cytotoxicity control for B/T-cell NF-kB inhibitor project, cell-based, uHTS hits (AID 489019); format: functional;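 further: IC50 reflects cytotoxicity as loss of cell viability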
[7] = Luminescence Cell-Based Dose Response HTS to Identify Inhibitors of 5'UTR Stem-Loop Driven Prion Protein mRNA Translation in H4 Neuroglioblastoma Cells. [Related pubchem assays: 1827 (Project Summary), 1813 (Primary HTS)]; format: functional
[8] = HeLa cell cytotoxicity, dose response, cytotoxicity control for MgcRacGAP inhibitor project (AID 624300); format: functional
[9] = microbe, parasite or virus in culture; format: functional; details: Mycobacterium tuberculosis
[10] = molecular target: T5, Calpain-2 catalytic subunit (Sus scrofa, UniProt P43367); experiment: pig calpain II inhibitor potency, dose response, biochemical, fluorogenic peptide substrate (AID 1420); format: functional
T5 sequence (P43367 whole entry): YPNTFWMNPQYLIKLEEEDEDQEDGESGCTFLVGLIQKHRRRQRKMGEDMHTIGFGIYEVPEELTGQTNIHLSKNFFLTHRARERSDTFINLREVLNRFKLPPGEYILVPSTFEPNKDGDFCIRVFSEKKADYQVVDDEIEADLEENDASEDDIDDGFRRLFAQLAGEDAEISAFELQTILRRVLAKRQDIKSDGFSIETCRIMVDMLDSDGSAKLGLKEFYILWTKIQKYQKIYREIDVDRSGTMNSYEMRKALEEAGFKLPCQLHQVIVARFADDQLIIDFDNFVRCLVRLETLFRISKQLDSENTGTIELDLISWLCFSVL

cells [11] = format: functional, cell-based
Jurkat = experiment: antigen receptor-induced NF-kB inhibitors, dose response, Jurkat, luciferase reporter, luminescence, B- and T-cell (AID 489004); format: functional, cell-based; details: Homo sapiens;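 further: NF-kB luciferase reporter Jurkat cells stimulated with PMA plus ionomycin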
[12] = molecular target: T6, COUP transcription factor 2 (Homo sapiens, UniProt P24468); experiment: Luminescence-based cell-based high throughput dose response assay to identify inhibitors of COUP-TFII (NR2F2).; format: functional;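 further: HEK293 cells transiently cotransfected with COUP-TFII expression vector and reporter; luciferase reporter luminescence driven by COUP-TFII from the pX2-168 reporter plasmid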
T6 sequence (P24468 whole entry): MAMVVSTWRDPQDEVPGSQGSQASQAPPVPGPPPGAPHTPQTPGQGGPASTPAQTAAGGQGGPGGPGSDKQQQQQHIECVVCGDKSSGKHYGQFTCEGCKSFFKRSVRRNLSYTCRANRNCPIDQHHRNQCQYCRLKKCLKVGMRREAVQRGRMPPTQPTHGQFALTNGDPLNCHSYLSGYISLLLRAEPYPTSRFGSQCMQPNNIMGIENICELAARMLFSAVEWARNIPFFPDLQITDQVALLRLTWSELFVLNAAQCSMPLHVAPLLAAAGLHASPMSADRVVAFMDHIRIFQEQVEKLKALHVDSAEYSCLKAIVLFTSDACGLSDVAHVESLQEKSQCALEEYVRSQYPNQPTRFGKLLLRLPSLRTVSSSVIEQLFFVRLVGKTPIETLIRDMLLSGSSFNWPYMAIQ

cells [13] = format: functional, cell-based; remark: listed apart in the source

Trypsin, sequence (P00761 whole entry): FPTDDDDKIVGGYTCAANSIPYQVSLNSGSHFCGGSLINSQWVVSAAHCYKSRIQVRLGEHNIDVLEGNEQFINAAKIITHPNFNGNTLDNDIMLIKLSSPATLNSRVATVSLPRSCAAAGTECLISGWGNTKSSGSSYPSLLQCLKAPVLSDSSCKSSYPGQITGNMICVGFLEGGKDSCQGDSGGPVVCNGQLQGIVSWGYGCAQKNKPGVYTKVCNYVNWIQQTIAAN

COc1ccc(C2SCC(C(=O)O)N2C(C)=O)cc1OC (configuration not stated)
IC50 [1]: > 67.5 µM (inactive) | IC50 (HEK293): > 67.5 µM (inactive)

Cc1cc(NC(=O)CSc2nc(N)c(NC(=O)c3ccco3)c(O)n2)no1
IC50 [1]: > 67.6 µM (inactive) | IC50 (HEK293): > 67.6 µM (inactive)

CC(=O)NN1C(=O)c2ccccc2NC1c1ccccc1 (configuration not stated)
AC50 (CAAX prenyl protease 2 [2]): > 100 µM (inactive)

Nc1c(C(=O)NCCN2CCOCC2)c2nc3ccccc3nc2n1-c1cccc(F)c1
AC50 (CAAX prenyl protease 2 [2]): 5.43 µM (active) | AC50 (CAAX prenyl protease 2 [3]): 15 µM (active) | AC50 (Trypsin): 12.4 µM (active)

CCN1/C(=C/c2ccc3cc(C)ccc3[n+]2CC)Sc2ccccc21
AC50 [4]: 7.73 µM (active) | EC50 (Troponin, cardiac muscle): 10.4 µM (inactive) | IC50 [5]: 59.5 µM (active) | IC50 [6]: > 80 µM (inactive) | EC50 [7]: > 120 µM (not active) | CC50 [8]: 12.5 µM (active) | CC50 [9]: 1.92 µM (active) | IC50 [10]: 16.4 µM (not active) | EC50 (cells [11]): > 350 µM (not active) | IC50 (Jurkat): 2.6 µM (active) | IC50 [12]: 1.55 µM (active) | EC50 (cells [13]): > 350 µM (not active)

Cc1ccc(CN2CCN(/N=C/c3ccccc3)CC2)cc1
IC50 [1]: > 67.6 µM (inactive) | IC50 (HEK293): > 67.6 µM (inactive)
